Measurements reported in the supplement of paper PMC10307832.

Assays:
Assay in all cases: relative viability (nuclei count vs DMSO), 5 days (fraction); higher = more cells survive
201T = tested on: 201T
Outline: (§1)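 The day after seeding in 1536-well plates, lung cancer cell lines were treated by pin tool with a single drug, or with a fixed anchor-drug dose together with five library-drug doses (not always all listed) in √10 steps. After 5 days, a combined fix-and-stain solution (final 0.05% Triton X-100, 1% formaldehyde, 1 ug/ml Hoechst) was added. Nuclei counted on 4× images gave relative viability as treated counts over vehicle counts, reported as the median of duplicate plates.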

BEN = tested on: BEN
Outline: as §1

EPLC-272H = tested on: EPLC-272H
Outline: as §1

HCC-15 = tested on: HCC-15
Outline: as §1

HCC-78 = tested on: HCC-78
Outline: as §1

LCLC-97TM1 = tested on: LCLC-97TM1
Outline: as §1

LU99A = tested on: LU99A
Outline: as §1

NCI-H1355 = tested on: NCI-H1355
Outline: as §1

NCI-H1395 = tested on: NCI-H1395
Outline: as §1

NCI-H2009 = tested on: NCI-H2009
Outline: as §1

NCI-H2085 = tested on: NCI-H2085
Outline: as §1

NCI-H2126 = tested on: NCI-H2126
Outline: as §1

NCI-H2228 = tested on: NCI-H2228
Outline: as §1

NCI-H2342 = tested on: NCI-H2342
Outline: as §1

NCI-H23 = tested on: NCI-H23
Outline: as §1

NCI-H2405 = tested on: NCI-H2405
Outline: as §1

NCI-H322M = tested on: NCI-H322M
Outline: as §1

NCI-H460 = tested on: NCI-H460
Outline: as §1

NCI-H647 = tested on: NCI-H647
Outline: as §1

NCI-H650 = tested on: NCI-H650
Outline: as §1

NCI-H661 = tested on: NCI-H661
Outline: as §1

NCI-H838 = tested on: NCI-H838
Outline: as §1

PC-14 = tested on: PC-14
Outline: as §1

CN1CCN(CCOc2cc(OC3CCOCC3)c3c(Nc4c(Cl)ccc5c4OCO5)ncnc3c2)CC1 [Saracatinib] + O=C(c1cc(Cc2n[nH]c(=O)c3ccccc23)ccc1F)N1CCN(C(=O)C2CC2)CC1 [Olaparib] (partner 8 µM)
relative viability (201T; first compound 0.02 µM): 0.913
relative viability (201T; first compound 0.2 µM): 0.595
relative viability (201T; first compound 0.6325 µM): 0.775
relative viability (201T; first compound 2 µM): 0.665
relative viability (BEN; first compound 0.02 µM): 1.15
relative viability (BEN; first compound 0.2 µM): 0.922
relative viability (BEN; first compound 0.6325 µM): 1.15
relative viability (BEN; first compound 2 µM): 0.794
relative viability (EPLC-272H; first compound 0.02 µM): 0.946
relative viability (EPLC-272H; first compound 0.2 µM): 0.714
relative viability (EPLC-272H; first compound 0.6325 µM): 0.658
relative viability (EPLC-272H; first compound 2 µM): 0.426
relative viability (HCC-15; first compound 0.02 µM): 0.717
relative viability (HCC-15; first compound 0.2 µM): 0.634
relative viability (HCC-15; first compound 0.6325 µM): 0.79
relative viability (HCC-15; first compound 2 µM): 0.752
relative viability (HCC-78; first compound 0.02 µM): 0.891
relative viability (HCC-78; first compound 0.6325 µM): 0.99
relative viability (HCC-78; first compound 2 µM): 0.673
relative viability (LCLC-97TM1; first compound 0.02 µM): 0.494
relative viability (LCLC-97TM1; first compound 0.2 µM): 0.291
relative viability (LCLC-97TM1; first compound 0.6325 µM): 0.567
relative viability (LCLC-97TM1; first compound 2 µM): 0.32
relative viability (LU99A; first compound 0.02 µM): 0.278
relative viability (LU99A; first compound 0.2 µM): 0.194
relative viability (LU99A; first compound 0.6325 µM): 0.282
relative viability (LU99A; first compound 2 µM): 0.256
relative viability (NCI-H1355; first compound 0.02 µM): 0.796
relative viability (NCI-H1355; first compound 0.2 µM): 0.692
relative viability (NCI-H1355; first compound 0.6325 µM): 0.817
relative viability (NCI-H1355; first compound 2 µM): 0.706
relative viability (NCI-H1395; first compound 0.02 µM): 0.497
relative viability (NCI-H1395; first compound 0.2 µM): 0.488
relative viability (NCI-H1395; first compound 0.6325 µM): 0.409
relative viability (NCI-H1395; first compound 2 µM): 0.436
relative viability (NCI-H2009; first compound 0.02 µM): 0.709
relative viability (NCI-H2009; first compound 0.2 µM): 0.477
relative viability (NCI-H2009; first compound 0.6325 µM): 0.688
relative viability (NCI-H2009; first compound 2 µM): 0.724
relative viability (NCI-H2085; first compound 0.02 µM): 0.802
relative viability (NCI-H2085; first compound 0.2 µM): 0.602
relative viability (NCI-H2085; first compound 0.6325 µM): 0.821
relative viability (NCI-H2085; first compound 2 µM): 0.863
relative viability (NCI-H2126; first compound 0.02 µM): 0.886
relative viability (NCI-H2126; first compound 0.2 µM): 0.924
relative viability (NCI-H2126; first compound 0.6325 µM): 0.923
relative viability (NCI-H2126; first compound 2 µM): 0.763
relative viability (NCI-H2228; first compound 0.02 µM): 0.966
relative viability (NCI-H2228; first compound 0.2 µM): 0.617
relative viability (NCI-H2228; first compound 0.6325 µM): 0.475
relative viability (NCI-H2228; first compound 2 µM): 0.568
relative viability (NCI-H2342; first compound 0.02 µM): 0.55
relative viability (NCI-H2342; first compound 0.2 µM): 0.312
relative viability (NCI-H2342; first compound 0.6325 µM): 0.434
relative viability (NCI-H2342; first compound 2 µM): 0.451
relative viability (NCI-H23; first compound 0.02 µM): 0.386
relative viability (NCI-H23; first compound 0.6325 µM): 0.391
relative viability (NCI-H23; first compound 2 µM): 0.23
relative viability (NCI-H2405; first compound 0.02 µM): 0.873
relative viability (NCI-H2405; first compound 0.2 µM): 0.84
relative viability (NCI-H2405; first compound 0.6325 µM): 0.673
relative viability (NCI-H2405; first compound 2 µM): 0.595
relative viability (NCI-H322M; first compound 0.02 µM): 0.769
relative viability (NCI-H322M; first compound 0.2 µM): 0.492
relative viability (NCI-H322M; first compound 0.6325 µM): 0.636
relative viability (NCI-H322M; first compound 2 µM): 0.402
relative viability (NCI-H460; first compound 0.02 µM): 0.416
relative viability (NCI-H460; first compound 0.2 µM): 0.285
relative viability (NCI-H460; first compound 0.6325 µM): 0.423
relative viability (NCI-H460; first compound 2 µM): 0.409
relative viability (NCI-H647; first compound 0.02 µM): 0.574
relative viability (NCI-H647; first compound 0.2 µM): 0.539
relative viability (NCI-H647; first compound 0.6325 µM): 0.406
relative viability (NCI-H647; first compound 2 µM): 0.364
relative viability (NCI-H650; first compound 0.02 µM): 0.353
relative viability (NCI-H650; first compound 0.2 µM): 0.442
relative viability (NCI-H650; first compound 0.6325 µM): 0.429
relative viability (NCI-H650; first compound 2 µM): 0.432
relative viability (NCI-H661; first compound 0.02 µM): 0.748
relative viability (NCI-H661; first compound 0.2 µM): 0.625
relative viability (NCI-H661; first compound 0.6325 µM): 0.671
relative viability (NCI-H661; first compound 2 µM): 0.59
relative viability (NCI-H838; first compound 0.02 µM): 0.776
relative viability (NCI-H838; first compound 0.2 µM): 0.643
relative viability (NCI-H838; first compound 0.6325 µM): 0.656
relative viability (NCI-H838; first compound 2 µM): 0.505
relative viability (PC-14; first compound 0.02 µM): 0.263
relative viability (PC-14; first compound 0.2 µM): 0.261
relative viability (PC-14; first compound 0.6325 µM): 0.201
relative viability (PC-14; first compound 2 µM): 0.117
